Our source for the TGI and GI50 values is PubChem BioAssay (NCI).

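Growth conditions: 96-well plates. Treatment: test compound, 48 hours, 5 concentrations. Analysis: linear interpolation between bracketing concentrations; unreached endpoints set to highest concentration. Abbreviation: GI50, concentration required for 50% inhibition of growth. TGI is the concentration that stops growth completely.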

Among the test systems are UACC-257 melanoma; NCI-H460 lung; OVCAR-5 ovarian; SF-295 CNS; SW-620 colon; SF-268 CNS; SK-OV-3 ovarian; T-47D breast; HT29 colon; EKVX NSCLC.
Assay in all cases: NCI anticancer screen, dose series, 48 h

On to `Cc1c2cccc-2c2cc(O)c3ccccc3c2n1-c1ccc(N(C)C)cc1`, for which the TGI is greater than 100 µM in the assay with UACC-257 melanoma; 59 µM with NCI-H460 lung; 24.7 µM in the assay with OVCAR-5 ovarian; 22.5 µM in the assay on SF-295 CNS; 53.6 µM with SW-620 colon; 32.8 µM in the assay with SF-268 CNS. Moreover, the TGI with SK-OV-3 ovarian turned out to be 29.3 µM; in the assay on T-47D breast, 0.829 µM; in the assay with HT29 colon, 31.4 µM; in the assay on EKVX NSCLC, 11.7 µM.
Turning to `CN(C)c1ccc(/C=C(\NC(=O)c2ccccc2)C(=O)NC(CC(=O)O)C(=O)O)cc1` (centres undefined), the TGI in the assay with UACC-257 melanoma, in the assay with NCI-H460 lung, in the assay with OVCAR-5 ovarian, with SF-295 CNS, in the assay on SW-620 colon and in the assay on SF-268 CNS was greater than 100 µM in each case. The TGI in the assay on SK-OV-3 ovarian, with T-47D breast, with HT29 colon and in the assay on EKVX NSCLC was greater than 100 µM in each case.
On to `COC(=O)c1ccccc1C1CN=NC12Cc1c(ccc(C)c1C)C2=O` (centres undefined), for which the TGI in the assay with UACC-257 melanoma, in the assay with NCI-H460 lung, in the assay with OVCAR-5 ovarian, with SF-295 CNS, in the assay with SW-620 colon and in the assay with SF-268 CNS was greater than 100 µM in each case. The TGI in the assay with SK-OV-3 ovarian, in the assay on T-47D breast, in the assay with HT29 colon and with EKVX NSCLC was greater than 100 µM throughout.
Take `CC(C)Oc1cccc(N2C(n3ccnc3)=Nc3ccncc3S2(=O)=O)c1`: the TGI in the assay on UACC-257 melanoma was 32 µM; with NCI-H460 lung, 37.4 µM; in the assay with OVCAR-5 ovarian it was 27.6 µM; in the assay on SF-295 CNS, greater than 100 µM; with SW-620 colon, 40.1 µM; in the assay with SF-268 CNS, 30.2 µM. Further, the TGI in the assay with SK-OV-3 ovarian was found to be 31.8 µM; with T-47D breast it was 41.5 µM; in the assay on HT29 colon, 34.9 µM; in the assay with EKVX NSCLC it was 30.4 µM.
`CN(CCN1CCCC1)C1CCc2cc(Cl)c(Cl)cc2C1` (centres undefined): the TGI in the assay on UACC-257 melanoma is 32.4 µM; with NCI-H460 lung, 31.5 µM; in the assay with OVCAR-5 ovarian, 31.4 µM; in the assay with SF-295 CNS, 29.1 µM; with SW-620 colon it was 89 µM; with SF-268 CNS it was 34 µM. Moreover, the TGI with SK-OV-3 ovarian is 32.4 µM; with T-47D breast, 22.1 µM; in the assay on HT29 colon, 22.8 µM; in the assay with EKVX NSCLC, 47.6 µM.
As to `CCCCCCCCCCCCCCCCCCOc1ccccc1CC(=O)NCC[N+]1(C)CCOCC1`, the GI50 with UACC-257 melanoma is 18.9 µM; in the assay with NCI-H460 lung, 3.31 µM; in the assay on OVCAR-5 ovarian, 1.89 µM; in the assay on SF-295 CNS, 4.99 µM; with SW-620 colon, 3.76 µM; in the assay on SF-268 CNS it was 2.77 µM. Further, the GI50 is 13.9 µM with SK-OV-3 ovarian, 6.85 µM with T-47D breast, 2.05 µM in the assay with HT29 colon and 8.62 µM with EKVX NSCLC. Also, the TGI in the assay with UACC-257 melanoma stood at 35.3 µM; with NCI-H460 lung, 17.4 µM; in the assay with OVCAR-5 ovarian, 4.85 µM; with SF-295 CNS it was 49.2 µM; with SW-620 colon, 22.5 µM; in the assay on SF-268 CNS it was 31.2 µM. For the same compound, the TGI worked out at 32.4 µM in the assay on SK-OV-3 ovarian, 39.2 µM with T-47D breast, 5.19 µM in the assay with HT29 colon and 56.2 µM with EKVX NSCLC.
Take `CC(=O)Nc1nc(Cl)cc(NCC2(CO)CCC2)n1`: the TGI in the assay with UACC-257 melanoma, with NCI-H460 lung, in the assay with OVCAR-5 ovarian, in the assay with SF-295 CNS, in the assay on SW-620 colon and in the assay on SF-268 CNS was greater than 100 µM in each case. Further, the TGI in the assay on SK-OV-3 ovarian, with T-47D breast, with HT29 colon and with EKVX NSCLC was greater than 100 µM each time.
Regarding `Cc1c(C)n(-c2ccccc2)c2nc(S(C)=O)nc(S(C)=O)c12` (centres undefined), the TGI is 25.9 µM in the assay with UACC-257 melanoma; 43.4 µM with NCI-H460 lung; 28.9 µM with OVCAR-5 ovarian; 32.2 µM in the assay on SF-295 CNS; 3.86 µM with SW-620 colon; 22.8 µM with SF-268 CNS. Further, the TGI was 32.4 µM with SK-OV-3 ovarian, 8.62 µM in the assay with T-47D breast, 25.1 µM in the assay on HT29 colon and 22.8 µM in the assay on EKVX NSCLC.
As for `Cc1ccc2cccc(-c3cccc4ccccc34)c2n1`, the TGI in the assay with UACC-257 melanoma was greater than 100 µM; in the assay with NCI-H460 lung, 89 µM; in the assay on OVCAR-5 ovarian, 55.5 µM; in the assay on SF-295 CNS, 69.8 µM; in the assay with SW-620 colon, greater than 100 µM; in the assay on SF-268 CNS, greater than 100 µM. The TGI in the assay with SK-OV-3 ovarian is 75.2 µM; in the assay with T-47D breast it was greater than 100 µM; in the assay with HT29 colon it was 76.9 µM; with EKVX NSCLC, 84.9 µM.
Regarding `COc1cccc(C2c3cc4c(cc3OC(O)C2C)OCO4)c1OC` (centres undefined), the TGI with UACC-257 melanoma stood at 37.9 µM; with NCI-H460 lung, 25.1 µM; in the assay on OVCAR-5 ovarian, 60.9 µM; in the assay with SF-295 CNS, 17.3 µM; in the assay with SW-620 colon it was 54 µM; in the assay with SF-268 CNS, 41.7 µM. Moreover, the TGI in the assay on T-47D breast is 40.7 µM; with HT29 colon it was 24.5 µM; in the assay with EKVX NSCLC it was 78.7 µM.
With `CN(C)CCn1c(=O)c2ccc(NCCCN(C)CCCNc3ccc4c(=O)n(CCN(C)C)c(=O)n5c6ccc(O)cc6c(=O)c3c45)c3c(=O)c4cc(O)ccc4n(c1=O)c23`, the TGI in the assay on UACC-257 melanoma amounted to 1.23 µM; in the assay on NCI-H460 lung, 0.234 µM; in the assay on OVCAR-5 ovarian, 1.15 µM; with SF-295 CNS it was 2.33 µM; in the assay with SF-268 CNS, 1.04 µM; with SK-OV-3 ovarian it was 2.4 µM. Besides, the TGI with T-47D breast was 10.2 µM; in the assay with HT29 colon, 1.05 µM; in the assay on EKVX NSCLC, 0.929 µM.
Take `CCCCI(O)OS(=O)(=O)c1ccc(C)cc1`: the TGI in the assay on UACC-257 melanoma, with OVCAR-5 ovarian, in the assay on SF-295 CNS, in the assay with SW-620 colon, in the assay with SF-268 CNS and in the assay on SK-OV-3 ovarian was greater than 100 µM each time. Besides, the TGI with T-47D breast, in the assay with HT29 colon and with EKVX NSCLC was greater than 100 µM throughout.
As for `COc1ccc(C2Oc3ccc(Cl)cc3C=C2[N+](=O)[O-])cc1` (centres undefined), the TGI in the assay with UACC-257 melanoma, in the assay on NCI-H460 lung, with OVCAR-5 ovarian, with SF-295 CNS, in the assay on SF-268 CNS and with SK-OV-3 ovarian was greater than 100 µM in each case. The TGI in the assay on T-47D breast, in the assay with HT29 colon and in the assay with EKVX NSCLC was greater than 100 µM throughout.
Consider `CN(C)C(=O)C(F)(F)C(c1ccc(F)cc1)C1C(=O)N(C)C(=O)N(C)C1=O` (centres undefined), for which the TGI with UACC-257 melanoma, with NCI-H460 lung, in the assay with OVCAR-5 ovarian, with SF-295 CNS, in the assay on SW-620 colon and with SF-268 CNS was greater than 100 µM each time. Moreover, the TGI in the assay with SK-OV-3 ovarian, in the assay with T-47D breast and with EKVX NSCLC was greater than 100 µM throughout.
On to `NCCN1CCCCCc2ccccc21`, for which the TGI in the assay with UACC-257 melanoma, with NCI-H460 lung, with SF-295 CNS, with SW-620 colon, in the assay with SF-268 CNS and in the assay with SK-OV-3 ovarian was greater than 10 µM each time. In addition, the TGI in the assay on T-47D breast, with HT29 colon and with EKVX NSCLC was greater than 10 µM throughout.
Take `CCOC(=O)c1c(N2CCCC2)[nH]c(=O)c(C(c2ccc(OC)cc2)c2c(O)c(C(=O)OCC)c(N3CCCC3)[nH]c2=O)c1O`: the TGI in the assay on UACC-257 melanoma, in the assay on NCI-H460 lung, in the assay on OVCAR-5 ovarian, with SF-295 CNS, with SW-620 colon and in the assay with SF-268 CNS was greater than 100 µM each time. The TGI with SK-OV-3 ovarian, with T-47D breast and with EKVX NSCLC was greater than 100 µM each time.
In the case of `COc1ccc2ccc3oc(=O)c(C)cc3c2c1`, the TGI in the assay with UACC-257 melanoma, in the assay with NCI-H460 lung, in the assay on OVCAR-5 ovarian, with SF-295 CNS, with SW-620 colon and with SF-268 CNS was greater than 100 µM each time. In addition, the TGI in the assay on T-47D breast, in the assay with HT29 colon and in the assay with EKVX NSCLC was greater than 100 µM each time.
Take `Cc1nc(N)c(N2CCN(C#N)CC2)c(=O)[nH]1`: the TGI in the assay on UACC-257 melanoma, with NCI-H460 lung, with OVCAR-5 ovarian, with SF-295 CNS, in the assay on SW-620 colon and in the assay with SF-268 CNS was greater than 100 µM throughout. The TGI with T-47D breast, in the assay with HT29 colon and with EKVX NSCLC was greater than 100 µM each time.
Take `O=C(COc1ccc(OCC(=O)N/N=C/c2ccc(-c3ccc(Cl)cc3Cl)o2)c(Cl)c1)N/N=C/c1ccc(-c2ccc(Cl)cc2Cl)o1`: the TGI in the assay with UACC-257 melanoma, with NCI-H460 lung, in the assay with OVCAR-5 ovarian, in the assay with SF-295 CNS, in the assay with SW-620 colon and in the assay on SF-268 CNS was greater than 100 µM throughout. Moreover, the figures for the TGI with T-47D breast, in the assay on HT29 colon and in the assay with EKVX NSCLC were greater than 100 µM, greater than 100 µM and 89.5 µM, respectively.
For the compound `Clc1cccc(-c2sc(-c3cccs3)cc2Cc2cccs2)c1`, the TGI in the assay on UACC-257 melanoma, in the assay with NCI-H460 lung, with SF-295 CNS, in the assay with SW-620 colon, in the assay on SF-268 CNS and with SK-OV-3 ovarian was greater than 10 µM each time. For the same compound, the TGI in the assay with T-47D breast, in the assay on HT29 colon and in the assay on EKVX NSCLC was greater than 10 µM each time.
